Experimental data from patent US20060069038A1, “Irreversible caspase-3 inhibitors as active site probes” (priority 2003, published 2006).
Changes are numbered by the printed parent chain.

Key:
caspase-3 [1] = molecular target: T1, caspase-3 (Homo sapiens, UniProt P42574); assay: Caspase-3 western blot on camptothecin-treated Jurkat cell extracts; format: cell-based; conditions: camptothecin-treated Jurkat cells, FIG. 4
T1 construct: endogenous in cells; host or cells: Jurkat cells, apoptosis induced with camptothecin
T1 sequence (P42574 29-175 limits assumed): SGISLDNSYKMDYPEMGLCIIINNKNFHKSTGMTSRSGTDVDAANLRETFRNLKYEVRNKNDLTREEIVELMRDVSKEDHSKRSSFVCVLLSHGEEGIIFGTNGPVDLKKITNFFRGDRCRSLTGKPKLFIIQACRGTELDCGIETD
T1 sequence (P42574 176-277 limits assumed): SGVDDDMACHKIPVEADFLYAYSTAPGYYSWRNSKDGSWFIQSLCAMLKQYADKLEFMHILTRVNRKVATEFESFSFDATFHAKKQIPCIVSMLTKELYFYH
Protocol: Jurkat cells (ATCC # TEB-152) were maintained in RPMI1640 supplemented with 10% FBS, 2 mM L-glutamine and antibiotics (penicillin and streptamycin). Apoptosis was induced on cells (1 million cells/ml) that had been starved for 36 hours in CytoSf4 media (Kemp technologies) by addition of camptothecin (Sigma; 3 μg/ml). NT2 cells (ATCC 3813555) were cultured in DMEM+10% FBS+2 mM L-glutamine and antibiotics. Apoptosis induced with camptothecin (5 μg/ml) in culture media.
Denatured protein extracts in 1× Laemli buffer were resolved through a 18% acrylamide gradient SDS-PAGE gel (Invitrogen) at 30 mA in Tris-Glycine buffer. Samples labeled with [^125I]-M808 were migrated until the dye front reached 0.5 cm above the end of the gel, and acrylamide 1 cm above the dye front was cut out to remove all free [^125I]-M808 and reduce background. The gels were fixed for 45 minutes in a 40% Methanol-10% Acetic acid solution and dried for 90 min at 80° C. before exposure on MS Kodak film with MS intensifying screens. For Western blotting, proteins were transferred onto a […] nitrocellulose membrane (Invitrogen) in Tris-Glycine-20% methanol buffer at 40V for 2 hours. Non-specific protein binding was minimized by incubating the membranes for 1 hour in blocking buffer (5% non-fat milk/TBS/0.1% Tween-20). […] Densitometry was performed using a BioRad instrument and QuantityOne software. […]

caspase-3 [2] = molecular target: T2, caspase-3 (Rattus norvegicus, UniProt P55213); assay: Saturation labeling of caspases in protein extracts of thymi from CLP-operated rats dosed with M867; format: binding; conditions: low specific activity probe, 80 μg rat thymus extract
T2 construct: endogenous in cells; host or cells: primary rat thymocytes (Sprague-Dawley), spontaneous apoptosis in culture
T2 sequence (P55213 29-175 limits assumed): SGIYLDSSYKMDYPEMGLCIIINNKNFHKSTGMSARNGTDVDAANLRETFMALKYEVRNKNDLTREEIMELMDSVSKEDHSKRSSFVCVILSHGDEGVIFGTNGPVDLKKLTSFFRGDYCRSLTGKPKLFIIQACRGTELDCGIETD
T2 sequence (P55213 176-277 limits assumed): T1 sequence (P42574 176-277 limits assumed) with V3T, H10Q, K35R, Q50L, D53H, F77L
Protocol: FIG. 7. Comparison of p17 caspase labeled with [^125I]-M808 for a short or a long incubation period. Septic rats were dosed intravenously with either vehicle or the indicated concentration of M867. Thymi were collected 24 hours post-CLP surgery. Western blot showing the appearance of cleaved p17 caspase-3. Partial caspase-3 labeling with high specific activity probe for 5 minutes. Saturated [^125I]-M808 labeling of active caspases in the same thymi extracts with low specific activity probe for 3 hours or 18 hours. During the long incubation period, M867 originally present on caspase-3 (seen from low or absent labeling) dissociates from the active site and is replaced by the irreversible active site probe [^125I]-M808. Displacement is essentially complete by 3 hours since no change in labeling intensity was observed between a 3 h and 18 h incubation period at 37° C.
Quantitation of total amount of active caspase can be determined by exposing protein extracts from either cultured cells (Jurkats, thymocytes) of CLP-derived rat thymi to low-specific activity [^125I]-M808 for long period of time. Briefly, 80 μg of rat thymus protein extracts from CLP-operated rats dosed with M867, were incubated for 3 hours or 18 hours with 1250 M808 (5 nM at 2000 Ci/mmole) and M808 (395 nM). […]

SMILES	effect on caspase-3 processing (western blot) (caspase-3 [1])	incubation time sufficient to label all active caspase-3 quantitatively (caspase-3 [2]) [h]
COc1ccc(-c2nc(C)no2)cc1CC(=O)N[C@H](C(=O)N[C@@H](CC(=O)O)C(=O)CSCc1ccccc1)C(C)C [Example M791, (3S)-5-(benzylthio)-3-[(N-{[2-methoxy-5-(3-methyl-1,2,4-oxadiazol-5-yl)phenyl]acetyl}-L-valyl)amino]4-oxopentanoic acid]	prevents the auto-processing of p20 caspase 3 into p19 and p17	–
COc1ccc(I)cc1CC(=O)N[C@H](C(=O)NC(CC(=O)O)C(=O)CF)C(C)C (stereo partly drawn) [[^125I]-M808, 5-fluoro-3-({N-[(5-iodo-2-methoxyphenyl)acetyl]-L-valyl}amino)-4-oxopentanoic acid]	–	3
